Measured values published in patent US8663927B2, “Systems and methods for diagnosis and monitoring of bacteria-related conditions” (priority 2007, dated 2014).

Tests used:
RhlR = molecular target: T1, RhlR (Pseudomonas aeruginosa, UniProt P54292); test: Whole-cell sensing system harboring plasmid pSB406 (rhlR, PrhlI::luxCDABE) in E. coli JM109, bioluminescence; format: cell-based; settings: for response of the biosensing system at the highest concentration tested: pSB406, 1×10^−4 M; for Limit of Detection: concentration giving signal >= blank average plus three standard deviations; for Signal Intensity at 1 × 10^−4 M: pSB406 sensing cells, 2 h incubation at 37° C., racemic AHL, average ± one standard deviation
T1 construct: expressed in transfected cells; host or cells: Escherichia coli JM109 transformed with plasmid pSB406
Procedure: (§1) The bacterial strain Escherichia coli JM109 was purchased from Stratagene (Cedar Creek, Tex.). Plasmids pSB406 and pSB1075 were transformed respectively into competent E. coli JM109 cells using the standard protocol provided by the manufacturer. The transformed cells were grown at 37° C. overnight on LB agar plates containing 50 μg/mL ampicillin. Cells from a single colony were grown overnight at 37° C., 250 rpm in LB broth containing the same amount (w/v) of ampicillin. Glycerol stocks were prepared from those cell cultures and stored at −80° C. Fresh cell cultures were obtained from the glycerol stocks and grown in an orbital shaker at 37° C., 250 rpm until an optical density at 600 nm (OD600 nm) of 0.45-0.50 was reached.
(§2) Commercially available AHLs were dissolved in acetonitrile to obtain 1×10^−2 M stock solutions, which were serially diluted with distilled, deionized water. AHL standard solutions of concentrations ranging from 1×10^−4 to 1×10^−9 M were obtained. A 1% solution of acetonitrile in distilled, deionized water was used as blank. […] A total of 100 μL of each of these solutions was added in triplicate to culture tubes containing 1 mL of cell culture grown to an OD600 nm of 0.45-0.50. These culture tubes were then incubated in an orbital shaker at 37° C. at 250 rpm for 2 h. The induced bioluminescence was then measured using a microplate reader after transferring 200 μL aliquots in triplicate from each culture tube into a 96-well micro titer plate. The total measuring time/well was 0.20 s. The light intensity was expressed in relative light units (RLU). The results were plotted using the software GraphPad Prism 4 (GraphPad Software, Inc., San Diego, Calif.).
(§3) Two different whole-cell sensing systems were used, harboring either the pSB406 or pSB1075 plasmid, which are based on P. aeruginosa quorum sensing regulatory systems. The plasmids pSB406 and pSB 1075 incorporate the genes rhlR and lasR, respectively, and the reporter gene cassette luxCDABE under transcriptional control of the promoters of the genes rhlI and lasI (PrhlI and PlasI) respectively. Since the rhlI and lasI genes code for the synthases for the AHLs, they are not cloned into plasmids used for sensing. When AHLs are present in the environment of the sensing bacterial cells, they bind to the regulatory proteins RhlR and LasR. Subsequently, the regulatory protein-AHL complex binds to the corresponding promoter and activates gene transcription (see, e.g., FIG. 2A for a schematic representation of AHL-dependent regulation of quorum sensing in LuxR/LuxI-type systems, and FIG. 2B for a schematic representation of plasmids pSB1075 and pSB406). As a result, the luxCDABE cassette is expressed and a bioluminescent signal is produced. Further, the bioluminescence signal produced is directly proportional to the amount of the target AHL molecule present.
Characterization of the whole-cell biosensing systems for the detection of AHLs was performed by incubating the bacterial cells with standard N-acyl homoserine lactone compounds with acyl side chains of different lengths. […] [19] […] Both compounds could be detected at concentrations as low as 1×10^−9 M, with a dynamic range of 4 orders of magnitude. The limit of detection was defined as the analyte concentration that produced a signal equal to or higher than the average signal produced by the blank plus three standard deviations.

LasR = molecular target: T2, LasR (Pseudomonas aeruginosa, UniProt P25084); test: Whole-cell sensing system harboring plasmid pSB1075 (lasR, PlasI::luxCDABE) in E. coli JM109, bioluminescence; format: cell-based; settings: for Dynamic Range / Limit of Detection: pSB1075; for Limit of Detection: concentration giving signal >= blank average plus three standard deviations; for Signal Intensity at 1 × 10^−4 M: pSB1075 sensing cells, 2 h incubation at 37° C., racemic AHL, average ± one standard deviation (n = 3)
T2 construct: expressed in transfected cells; host or cells: Escherichia coli JM109 transformed with plasmid pSB1075
Procedure: as §1, §2, §3
The limit of detection was 1×10^−9 M for C14-HSL, as well as C12-HSL.

V. harveyi strain BB170 = test: AI-2 whole-cell sensing with bioluminescent sensor strain BB170; format: cell-based, Vibrio harveyi; settings: 10^−7 M AI-2, after 2.5 hours of incubation with the BB170 sensor strain
Procedure: AB media used to grow V. harveyi strain BB170, a genetically modified strain that produces light in response to AI-2, was prepared as described previously. The BB170 sensor strain was grown overnight in AB medium at 30° C. and 175 rpm. The following day, overnight grown BB170 culture was diluted in AB medium to obtain a final O.D.600 nm of 0.010.
Saliva samples were collected and processed as described hereinabove. The available stock of AI-2 was 3.9 mM. AI-2 standard solutions with concentrations ranging from 2.5×10^−4M to 10^−7M were then prepared by using distilled, deionized water. 10 μL of AI-2 standard solution was incubated with 90 μL of BB170 bacterial culture at O.D.600 nm 0.010, in triplicate on a microtitre plate. 10 μL water incubated with 90 μL of BB170 served as a blank. An orbital shaker set at 30° C. and 175 rpm was used for incubation. Bioluminescence was then measured over a period of time. In order to evaluate the effect of saliva matrix, saliva samples were also spiked with a particular concentration of AI-2 and then incubated with the BB170 strain. […]
Vibrio harveyi bioluminescent strain BB170 was used for the detection of AI-2 and was modified from the wild type V. harveyi so that it induces lux expression exclusively in response to AI-2. AI-2 is detected by BB170 when it binds to the periplasmic protein LuxP. […]

T2 sequence (P25084 whole entry): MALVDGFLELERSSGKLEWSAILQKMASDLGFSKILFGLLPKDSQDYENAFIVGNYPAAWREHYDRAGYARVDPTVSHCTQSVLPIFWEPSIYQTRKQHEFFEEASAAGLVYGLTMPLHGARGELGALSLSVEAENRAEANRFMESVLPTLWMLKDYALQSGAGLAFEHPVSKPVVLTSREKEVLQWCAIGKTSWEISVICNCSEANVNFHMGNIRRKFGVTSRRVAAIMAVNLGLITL
T1 sequence (P54292 whole entry): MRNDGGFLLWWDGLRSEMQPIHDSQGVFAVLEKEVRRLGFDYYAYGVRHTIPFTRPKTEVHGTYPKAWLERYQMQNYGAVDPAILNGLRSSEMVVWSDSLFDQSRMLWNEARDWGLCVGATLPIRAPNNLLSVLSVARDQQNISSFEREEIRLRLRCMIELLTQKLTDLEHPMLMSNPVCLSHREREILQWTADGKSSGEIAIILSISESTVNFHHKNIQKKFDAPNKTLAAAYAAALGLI

Compound	L-isomer versus DL-racemic mixture: limit of detection, dynamic range and maximum signal intensity of the dose-response curves (RhlR; pSB406)	Dynamic Range (RhlR; pSB406) [nM]	dynamic range (RhlR; pSB406)	response of the biosensing system at the highest concentration tested (RhlR)	Limit of Detection (RhlR; pSB406) [nM]	Signal Intensity at 1 × 10^−4 M (RhlR)	Dynamic Range (LasR) [nM]	Limit of Detection (LasR) [nM]	Signal Intensity at 1 × 10^−4 M (LasR)	response of the whole-cell sensor at the highest concentration tested (LasR; pSB1075, 1×10^−4 M)	Average Signal (V. harveyi strain BB170) [RLU]
CCCC(=O)CC(=O)N[C@H]1CCOC1=O [3-oxo-C6-HSL, N-(3-oxo)-hexanoyl homoserine lactone]	no significant differences										
CCCC(=O)NC1CCOC1=O (centres unmarked) [C4-HSL, N-butyryl homoserine lactone]		1 to 100000	4 orders of magnitude	induced the maximum response	1	19.99 ± 0.00 ×10^5, RLU	100 to 100000	100	1.87 ± 0.06 ×10^5, RLU		
CCCCCC(=O)NC1CCOC1=O (centres unmarked) [C6-HSL, N-hexanoyl homoserine lactone]		1 to 100000	4 orders of magnitude	induced the maximum response	1	19.64 ± 0.25 ×10^5, RLU		>100000	2.53 ± 1.15 ×10^5, RLU		
CCCCCCCC(=O)NC1CCOC1=O (centres unmarked) [C8-HSL, N-octanoyl homoserine lactone]		1 to 100000			1	6.87 ± 0.23 ×10^5, RLU	10000 to 100000	10000	7.94 ± 0.70 ×10^5, RLU		
CCCCCCCCCCCC(=O)NC1CCOC1=O (centres unmarked) [C12-HSL, N-dodecanoyl homoserine lactone]		10 to 10000			10	8.40 ± 0.55 ×10^5, RLU	1 to 10000	1	8.99 ± 0.17 ×10^5, RLU		
CCCCCCCCCCCCCC(=O)NC1CCOC1=O (centres unmarked) [C14-HSL, N-tetradecanoyl homoserine lactone]					>10000	4.22 ± 0.22 ×10^5, RLU	1 to 100000	1	11.74 ± 0.09 ×10^5, RLU	induced the maximum response	
Autoinducer-2 [AI-2]											324218
